This note sets out measurements from patent US9963431B2, “Use of quinoline derivatives for improving plant yield” (BAYER CROPSCIENCE AG, priority 2013, dated 2018).

Experiment [1] concerns Triticum aestivum variety “AC Harvest”. Kind of experiment: Growth chamber trial, grain yield after post-emergence spray application. In kind it is in vivo. The following applies: for Relative, %: grain yield relative to UTC = 100; for Relative, % / Difference (%) vs. UTC: 10 gai/ha of each active ingredient (mixtures 10 + 10); for Difference (%) vs. UTC: grain yield; for Grain Yield, g/plant: growth chamber, spray at BBCH 56-61, 10 gai/ha of each active ingredient (mixtures 10 + 10).

The test system of experiment [2] is Triiticum aestivum seeds (TRZAS). Description: Seed treatment trial, grain yield of plants from treated seeds. In kind it is in vivo, Triticum aestivum.
For experiment [3], the system named is Corn. Kind of experiment: Field trial, corn grain yield after post emergence application. In kind it is in vivo. The following applies: for Relative, %: yield relative to UTC = 100. From the text:
(§1) The trials have been carried out under natural field conditions (plot trials, 10 sqm, 4 replications) with spray applications using 100-300 l/water per hectare.
(§2) The applications have been done as post emergence treatments straight (alone, 1 application). The growth stage of the crops species at the time of application are reported in the single tables as well as the dose rates of the active ingredients applied.
(§3) The trials have been harvested after crops reached the full maturity. After the harvest, the total weights of grains (kernels/seeds) per plot were taken. Afterwards the seed samples were dried to 14% moisture. The freshweight were calculated to a uniform dry weight of 86% for all harvested plots. The results are reported as means over 4 replications per treatment based on 14% moisture resp. 86% dry weight. The time interval (in days) between applications and harvest time are also described in the single tables.

Experiment [4] has as its system Spring wheat. Kind of experiment: Field trial, spring wheat grain yield after post emergence application. The experiment is classed as in vivo. The following applies: 100 gai/ha; for Relative, %: yield relative to UTC = 100.
Excerpt: as §1, §2, §3

Experiment [5] relates to Oil seed rape (spring; Canola). Description: Field trial, oil seed rape grain yield after post emergence application. In kind it is in vivo. Particulars: 100 gai/ha.
Excerpt: as §1, §2, §3

The mark [6] stands for this setting: grain yield relative to UTC = 100, 1 gai/kg seed.
Setting [7] is: 20 gai/ha, mid-post, harvest 76 days after application.
Setting [8] is: 100 gai/ha, GS 33, harvest 84 days after application.
Setting [9] is: GS 39, harvest 80 days after application.
Setting [10] is: GS 55, harvest 72 days after application.
Where [11] appears, read: 250 gai/ha, mid-post, harvest 76 days after application.

Turning to `CO/C=C(/C(=O)OC)c1ccccc1Oc1cc(Oc2ccccc2C#N)ncn1` [Azoxystrobin, azoxystrobin], in experiment [1], the “Relative, %” value stood at 115.1%; the “Difference (%) vs. UTC” value is “+15.1%”; the “Grain Yield, g/plant” value is on record as 1.22 g/plant.
For `COCC(=O)N(c1c(C)cccc1C)C(C)C(=O)OC` (stereo not drawn) [metalaxyl], the figures for the “Relative, %” value in experiment [1] and in experiment [2] (setting [6]) were 107.5% and 84.4%, respectively. For the same molecule, the “Difference (%) vs. UTC” value in experiment [1] was “+7.5%”; in experiment [2] (1 gai/kg seed) it was −15.6%. Moreover, the “Grain Yield, g/plant” value is on record as 1.14 g/plant in experiment [1] and 1.52 g/plant in experiment [2] (1 gai/kg seed).
With `CON=C(C(=O)OC)c1ccccc1CON=C(C)c1cccc(C(F)(F)F)c1` [Trifloxystrobin, trifloxystrobin], in experiment [1], the “Relative, %” value is given as 105.7%; the “Difference (%) vs. UTC” value is “+5.7%”; the “Grain Yield, g/plant” value came out at 1.12 g/plant.
The matching figures for `CN/C(=N\[N+](=O)[O-])NCc1cnc(Cl)s1` [Clothianidin, clothianidin]: 112.3%, “+12.3%” and 1.19 g/plant.
With `CCCCCC(C)OC(=O)COc1ccc(Cl)c2cccnc12` (stereo not drawn) [CQM, 1-methylhexyl (5-chloro-8-quinolinoxy)acetate], the “Relative, %” value in experiment [1] came to 103.7%; in experiment [3] (setting [7]), 102.4%; in experiment [3] (setting [8]), 108.0%; in experiment [4] (setting [9]), 109.0%; in experiment [4] (setting [10]), 107.0%; in experiment [5] (yield relative to UTC = 100, GS 60, harvest 49 days after application), 104.0%. Moreover, the “Relative, %” value in experiment [2] (grain yield relative to UTC = 100, 0.5 gai/kg seed) amounted to 114.4%; in experiment [2] (setting [6]), 109.4%. The “Difference (%) vs. UTC” value in experiment [1] is “+3.7%”; in experiment [3] (setting [7]), “+2.4%”; in experiment [3] (setting [8]), “+9.0%”; in experiment [4] (setting [9]), “+9.0%”; in experiment [4] (setting [10]), “+7.0%”; in experiment [5] (GS 60, harvest 49 days after application), “+4.0%”. In addition, the figures for the “Difference (%) vs. UTC” value in experiment [2] (0.5 gai/kg seed) and in experiment [2] (1 gai/kg seed) were “+14.4%” and “+9.4%”, respectively. Moreover, the “Grain Yield, g/plant” value in experiment [1] was 1.10 g/plant; in experiment [2] (0.5 gai/kg seed), 2.06 g/plant; in experiment [2] (1 gai/kg seed) it was 1.97 g/plant. Besides, the “Yield, dt/ha” value in experiment [3] (setting [7]) is on record as 94 dt/ha; in experiment [3] (100 gai/ha, post emergence, stem elongation stage (GS 33), harvest 84 days after application), 52.7 dt/ha; in experiment [4] (late post emergence, ear heading (GS 55), harvest 72 days after application) it was 40.2 dt/ha; in experiment [4] (post emergence, flag leaf stage (GS 39), harvest 80 days after application), 41.7 dt/ha; in experiment [5] (late post emergence, begin of flowering (GS 60), harvest 49 days after application), 18.4 dt/ha.
Turning to `COC(=O)N(OC)c1ccccc1COc1ccn(-c2ccc(Cl)cc2)n1` [Pyraclostrobin, pyraclostrobin], in experiment [1], the “Relative, %” value was 117.0%; the “Difference (%) vs. UTC” value was “+17.0%”; the “Grain Yield, g/plant” value stood at 1.24 g/plant. Further, in experiment [3] (setting [11]), the “Difference (%) vs. UTC” value is on record as −15.2%; the “Yield, dt/ha” value was 78 dt/ha; the “Relative, %” value worked out at 84.8%.
As to `N#Cc1nn(-c2c(Cl)cc(C(F)(F)F)cc2Cl)c(N)c1[S+]([O-])C(F)(F)F` (stereo not drawn) [Fipronil, fipronil], in experiment [1], the “Relative, %” value was 112.3%; the “Difference (%) vs. UTC” value was “+12.3%”; the “Grain Yield, g/plant” value is recorded as 1.19 g/plant.
In the same order, the values of `OC(Cc1ccccc1Cl)(Cn1nc[nH]c1=S)C1(Cl)CC1` (stereo not drawn) [Prothioconazole, prothioconazole] are 96.2%, −3.8% and 1.02 g/plant.
For `O=[N+]([O-])NC1=NCCN1Cc1ccc(Cl)nc1` [lmidacloprid, imidacloprid], in experiment [1], the “Relative, %” value is listed as 107.5%; the “Difference (%) vs. UTC” value is on record as “+7.5%”; the “Grain Yield, g/plant” value is listed as 1.14 g/plant.
In the case of `CC1COC(Cn2cncn2)(c2ccc(Oc3ccc(Cl)cc3)cc2Cl)O1` (stereo not drawn) [Difenoconazole, difenoconazole], in experiment [1], the “Relative, %” value is on record as 96.2%; the “Difference (%) vs. UTC” value is −3.8%; the “Grain Yield, g/plant” value is given as 1.02 g/plant. Besides, in experiment [2] (1 gai/kg seed), the “Difference (%) vs. UTC” value is listed as −10% and the “Grain Yield, g/plant” value was determined as 1.62 g/plant. Further, the “Relative, %” value in experiment [2] (setting [6]) amounted to 90%.
Regarding `N#Cc1c[nH]cc1-c1cccc2c1OC(F)(F)O2` [Fludioxonil, fludioxonil], in experiment [2] (1 gai/kg seed), the “Difference (%) vs. UTC” value is “+14.4%” and the “Grain Yield, g/plant” value came to 2.06 g/plant. Also, the “Relative, %” value in experiment [2] (setting [6]) was determined as 114.4%.
